The target in experiment [1] is T1, human transferrin receptor (hTfR) (Homo sapiens, UniProt P02786). Nature of the experiment: SPR measurement under pH 7.4 conditions (Biacore T200, CM3 chip, hTfR captured by His Tag antibody). In kind it is binding. The note with it: pH 7.4, single-cycle kinetics; read-out: hTfR SPR pH7.4 KD. (In general: In SPR one partner is held on a chip, and binding of the other changes the refractive index at the surface.)

The target in experiment [2] is T1, human transferrin receptor (hTfR). Nature of the experiment: SPR measurement under pH 6.0 conditions (Biacore T200, NTA chip, immobilized hTfR). In kind it is binding. Particulars: pH 6.0, single-cycle kinetics; read-out: hTfR SPR pH6.0 KD.

Molecules are shown by their SMILES. pKd: −log10 of the molar value. Numbered stars: 1 amine (or outer) side, 2 acyl side, 3 side chain; on linkers, the order of the positions; unused ones are H or OH. Bridge positions count the residues as written; N and C are the ends. Square brackets hold non-standard residues; d marks the D form. Side chains are listed from the residue outwards. Peptide text beside a SMILES is read from it. * marks the point of attachment. Trp(1-CH2COOH) = N[C@@H](Cc1cn(CC(=O)O)c2ccccc12)C(=O)O; CH2CON(CH2CH2)2NCH2COOH = O=C(O)CN1CCN(C(=O)C*)CC1; Nle(6-morpholino) = N[C@@H](CCCCN1CCOCC1)C(=O)O; Phe(3-COOH) = N[C@@H](Cc1cccc(C(=O)O)c1)C(=O)O; Trp(7-aza) = N[C@@H](Cc1c[nH]c2ncccc12)C(=O)O; NH(CH2CH2O)8Me = COCCOCCOCCOCCOCCOCCOCCOCCN*; NMePhe(3-Cl) = CN[C@@H](Cc1cccc(Cl)c1)C(=O)O; Piperazinyl(4-CH2COOH) = O=C(O)CN1CCN(*)CC1; NMeY = CN[C@@H](Cc1ccc(O)cc1)C(=O)O; 4Pal = N[C@@H](Cc1ccncc1)C(=O)O; PEG4 = NCCOCCOCCOCCOCCC(=O)O; CO = O=C([*:1])[*:2]

For orientation: pKd means −log10 of the Kd, conventionally taken in molar units.

T1 sequence (P02786 whole entry): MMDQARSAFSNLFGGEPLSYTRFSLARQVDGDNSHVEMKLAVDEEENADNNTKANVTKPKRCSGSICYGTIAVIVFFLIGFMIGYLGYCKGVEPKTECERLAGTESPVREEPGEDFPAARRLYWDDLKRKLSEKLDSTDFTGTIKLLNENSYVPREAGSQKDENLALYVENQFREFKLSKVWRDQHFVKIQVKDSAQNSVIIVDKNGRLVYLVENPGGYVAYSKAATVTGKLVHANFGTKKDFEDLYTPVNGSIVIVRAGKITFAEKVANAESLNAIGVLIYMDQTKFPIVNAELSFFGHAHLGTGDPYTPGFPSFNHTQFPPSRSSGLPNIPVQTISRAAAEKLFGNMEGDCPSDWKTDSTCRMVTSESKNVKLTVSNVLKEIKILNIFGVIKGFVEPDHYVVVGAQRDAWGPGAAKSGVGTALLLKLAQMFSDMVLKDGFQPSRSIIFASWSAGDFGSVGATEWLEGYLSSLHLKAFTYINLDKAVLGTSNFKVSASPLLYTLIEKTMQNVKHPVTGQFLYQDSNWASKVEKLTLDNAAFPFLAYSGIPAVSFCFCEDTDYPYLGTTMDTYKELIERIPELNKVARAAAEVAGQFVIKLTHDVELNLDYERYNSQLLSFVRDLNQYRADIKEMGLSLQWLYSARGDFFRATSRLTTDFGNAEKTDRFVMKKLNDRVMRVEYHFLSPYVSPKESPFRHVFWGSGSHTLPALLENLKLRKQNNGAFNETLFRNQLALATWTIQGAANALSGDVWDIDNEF

As for `CC[C@H](C)[C@@H]1NC(=O)[C@H](Cc2ccc(OCC(=O)N3CCN(CC(=O)O)CC3)cc2)NC(=O)[C@H](Cc2ccc(O)cc2)NC(=O)[C@H](CC(N)=O)NC(=O)[C@H](Cc2c[nH]c3ncccc23)NC(=O)[C@H](C(C)C)NC(=O)[C@H](Cc2cccc(Cl)c2)N(C)C(=O)[C@H](C(C)C)NC(=O)[C@H](C)NC(=O)CSC[C@@H](C(=O)NCCOCCOCCOCCOCCC(N)=O)NC(=O)[C@H](Cc2ccc(O)cc2)N(C)C(=O)[C@H](Cc2cccc(C(=O)O)c2)NC(=O)[C@H](CCCCN2CCOCC2)NC(=O)[C@H](CCC(=O)NCCOCCOCCOCCOCCOCCOCCOCCOC)NC(=O)[C@H]([C@@H](C)CC)NC1=O` [compound 21] ({CH2CO}-AV[NMePhe(3-Cl)]V[Trp(7-aza)]NYY(CH2CON(CH2CH2)2NCH2COOH)IIE(NH(CH2CH2O)8Me)[Nle(6-morpholino)][Phe(3-COOH)][NMeY]C[PEG4]-NH2; thioether N-15), the results for the pKd in experiment [1] and in experiment [2] were 8.27 and 7.00, respectively.

In the case of `CC[C@H](C)[C@@H]1NC(=O)[C@H](Cc2ccc(OCC(=O)N3CCN(CC(=O)O)CC3)cc2)NC(=O)[C@H](Cc2ccc(O)cc2)NC(=O)[C@H](CC(N)=O)NC(=O)[C@H](Cc2cn(CC(=O)O)c3ccccc23)NC(=O)[C@H](C(C)C)NC(=O)[C@H](Cc2cccc(Cl)c2)N(C)C(=O)[C@H](C(C)C)NC(=O)[C@H](C)NC(=O)CSC[C@@H](C(=O)NCCOCCOCCOCCOCCC(N)=O)NC(=O)[C@H](Cc2ccc(O)cc2)N(C)C(=O)[C@H](Cc2ccncc2)NC(=O)[C@H](CCCCN2CCOCC2)NC(=O)[C@H](CCC(=O)NCCOCCOCCOCCOCCOCCOCCOCCOC)NC(=O)[C@H]([C@@H](C)CC)NC1=O` [compound 22], the pKd in experiment [1] was 8.39; in experiment [2], 6.69.

With `CC[C@H](C)[C@@H]1NC(=O)[C@H](Cc2ccc(OCC(=O)N3CCN(CC(=O)O)CC3)cc2)NC(=O)[C@H](Cc2ccc(O)cc2)NC(=O)[C@H](CC(N)=O)NC(=O)[C@H](Cc2c[nH]c3ncccc23)NC(=O)[C@H](C(C)C)NC(=O)[C@H](Cc2cccc(Cl)c2)N(C)C(=O)[C@H](C(C)C)NC(=O)[C@H](C)NC(=O)CSC[C@@H](C(=O)NCCOCCOCCOCCOCCC(N)=O)NC(=O)[C@H](Cc2ccc(O)cc2)N(C)C(=O)[C@H](Cc2ccncc2)NC(=O)[C@H](CCCCN2CCOCC2)NC(=O)[C@H](CCC(N)=O)NC(=O)[C@H]([C@@H](C)CC)NC1=O` [compound 23], the pKd in experiment [1] was 8.46; in experiment [2] it was 7.48.

For the compound `CC[C@H](C)[C@@H]1NC(=O)[C@H](Cc2ccc(OCC(=O)N3CCN(CC(=O)O)CC3)cc2)NC(=O)[C@H](Cc2ccc(O)cc2)NC(=O)[C@H](CC(N)=O)NC(=O)[C@H](Cc2c[nH]c3ncccc23)NC(=O)[C@H](C(C)C)NC(=O)[C@H](Cc2cccc(Cl)c2)N(C)C(=O)[C@H](C(C)C)NC(=O)[C@H](C)NC(=O)CSC[C@@H](C(=O)NCCOCCOCCOCCOCCC(N)=O)NC(=O)[C@H](Cc2ccc(O)cc2)N(C)C(=O)[C@H](Cc2cccc(C(=O)O)c2)NC(=O)[C@H](CCCCN2CCOCC2)NC(=O)[C@H](CCC(N)=O)NC(=O)[C@H]([C@@H](C)CC)NC1=O` [compound 24] ({CH2CO}-AV[NMePhe(3-Cl)]V[Trp(7-aza)]NYY(CH2CON(CH2CH2)2NCH2COOH)IIQ[Nle(6-morpholino)][Phe(3-COOH)][NMeY]C[PEG4]-NH2; thioether N-15), the pKd in experiment [1] is 8.70; in experiment [2], 7.57.

For `CC[C@H](C)[C@@H]1NC(=O)[C@H](Cc2ccc(OCC(=O)N3CCN(CC(=O)O)CC3)cc2)NC(=O)[C@H](Cc2ccc(O)cc2)NC(=O)[C@H](CC(N)=O)NC(=O)[C@H](Cc2cn(CC(=O)O)c3ccccc23)NC(=O)[C@H](C(C)C)NC(=O)[C@H](Cc2cccc(Cl)c2)N(C)C(=O)[C@H](C(C)C)NC(=O)[C@H](C)NC(=O)CSC[C@@H](C(=O)NCCOCCOCCOCCOCCC(N)=O)NC(=O)[C@H](Cc2ccc(O)cc2)N(C)C(=O)[C@H](Cc2ccncc2)NC(=O)[C@H](CCCCN2CCOCC2)NC(=O)[C@H](CCC(N)=O)NC(=O)[C@H]([C@@H](C)CC)NC1=O` [compound 25], the figures for the negative-log Kd (pKd) in experiment [1] and in experiment [2] were 8.47 and 7.24, respectively.

As for `CC[C@H](C)[C@@H]1NC(=O)[C@H](Cc2ccc(OCC(=O)NC[C@H](O)[C@@H](O)[C@H](O)[C@H](O)CO)cc2)NC(=O)[C@H](Cc2ccc(O)cc2)NC(=O)[C@H](CC(N)=O)NC(=O)[C@H](Cc2c[nH]c3ncccc23)NC(=O)[C@H](C(C)C)NC(=O)[C@H](Cc2cccc(Cl)c2)N(C)C(=O)[C@H](C(C)C)NC(=O)[C@H](C)NC(=O)CSC[C@@H](C(=O)NCCOCCOCCOCCOCCC(N)=O)NC(=O)[C@H](Cc2ccc(O)cc2)N(C)C(=O)[C@H](Cc2ccncc2)NC(=O)[C@H](CCCNC(=N)N)NC(=O)[C@H](CCC(=O)NC[C@H](O)[C@@H](O)[C@H](O)[C@H](O)CO)NC(=O)[C@H]([C@@H](C)CC)NC1=O` [compound 26], the pKd in experiment [1] is 8.76; in experiment [2], 7.87.

Take `CC[C@H](C)[C@@H]1NC(=O)[C@H](Cc2ccc(OCC(=O)NC[C@H](O)[C@@H](O)[C@H](O)[C@H](O)CO)cc2)NC(=O)[C@H](Cc2ccc(O)cc2)NC(=O)[C@H](CC(N)=O)NC(=O)[C@H](Cc2c[nH]c3ncccc23)NC(=O)[C@H](C(C)C)NC(=O)[C@H](Cc2cccc(Cl)c2)N(C)C(=O)[C@H](C(C)C)NC(=O)[C@H](C)NC(=O)CSC[C@@H](C(=O)NCCOCCOCCOCCOCCC(N)=O)NC(=O)[C@H](Cc2ccc(O)cc2)N(C)C(=O)[C@H](Cc2ccncc2)NC(=O)[C@H](CCCCN2CCOCC2)NC(=O)[C@H](CCC(=O)NC[C@H](O)[C@@H](O)[C@H](O)[C@H](O)CO)NC(=O)[C@H]([C@@H](C)CC)NC1=O` [compound 27]: the pKd in experiment [1] is 8.52; in experiment [2], 7.81.

On to `CC[C@H](C)[C@@H]1NC(=O)[C@H](Cc2ccc(OCC(=O)NC[C@H](O)[C@@H](O)[C@H](O)[C@H](O)CO)cc2)NC(=O)[C@H](Cc2ccc(O)cc2)NC(=O)[C@H](CC(N)=O)NC(=O)[C@H](Cc2c[nH]c3ncccc23)NC(=O)[C@H](C(C)C)NC(=O)[C@H](Cc2cccc(Cl)c2)N(C)C(=O)[C@H](C(C)C)NC(=O)[C@H](C)NC(=O)CSC[C@@H](C(=O)NCCOCCOCCOCCOCCC(N)=O)NC(=O)[C@H](Cc2ccc(O)cc2)N(C)C(=O)[C@H](Cc2ccncc2)NC(=O)[C@H](CCCCN2CCOCC2)NC(=O)[C@H](CCC(N)=O)NC(=O)[C@H]([C@@H](C)CC)NC1=O` [compound 29], for which the pKd in experiment [1] was 8.66; in experiment [2], 7.95.

Regarding `CC[C@H](C)[C@@H]1NC(=O)[C@H](Cc2ccc(OCC(=O)N3CCN(CC(=O)O)CC3)cc2)NC(=O)[C@H](Cc2ccc(O)cc2)NC(=O)[C@H](CC(N)=O)NC(=O)[C@H](Cc2cn(CC(=O)O)c3ccccc23)NC(=O)[C@H](C(C)C)NC(=O)[C@H](Cc2cccc(Cl)c2)N(C)C(=O)[C@H](C(C)C)NC(=O)[C@H](C)NC(=O)CSC[C@@H](C(=O)NCCOCCOCCOCCOCCC(N)=O)NC(=O)[C@H](Cc2ccc(O)cc2)N(C)C(=O)[C@H](Cc2ccccc2)NC(=O)[C@H](CCCCN2CCOCC2)NC(=O)[C@H](CCC(=O)NCCOCCOCCOCCOCCOCCOCCOCCOC)NC(=O)[C@H]([C@@H](C)CC)NC1=O` [compound 30] ({CH2CO}-AV[NMePhe(3-Cl)]V[Trp(1-CH2COOH)]NYY(CH2CON(CH2CH2)2NCH2COOH)IIE(NH(CH2CH2O)8Me)[Nle(6-morpholino)]F[NMeY]C[PEG4]-NH2; thioether N-15), the values for the pKd in experiment [1] and in experiment [2] were 7.99 and 7.02, respectively.

Regarding `CC[C@H](C)[C@@H]1NC(=O)[C@H](Cc2ccc(OCC(=O)N3CCN(CC(=O)O)CC3)cc2)NC(=O)[C@H](Cc2ccc(O)cc2)NC(=O)[C@H](CC(N)=O)NC(=O)[C@H](Cc2c[nH]c3ccccc23)NC(=O)[C@H](C(C)C)NC(=O)[C@H](Cc2cccc(Cl)c2)N(C)C(=O)[C@H](C(C)C)NC(=O)[C@H](C)NC(=O)CSC[C@@H](C(=O)NCCOCCOCCOCCOCCC(N)=O)NC(=O)[C@H](Cc2ccc(O)cc2)N(C)C(=O)[C@H](Cc2cccc(C(=O)O)c2)NC(=O)[C@H](CCCCN2CCOCC2)NC(=O)[C@H](CCC(=O)NCCOCCOCCOCCOCCOCCOCCOCCOC)NC(=O)[C@H]([C@@H](C)CC)NC1=O` [compound 31] ({CH2CO}-AV[NMePhe(3-Cl)]VWNYY(CH2CON(CH2CH2)2NCH2COOH)IIE(NH(CH2CH2O)8Me)[Nle(6-morpholino)][Phe(3-COOH)][NMeY]C[PEG4]-NH2; thioether N-15), the pKd in experiment [1] was 8.61; in experiment [2] it was 7.77.

On to `CC[C@H](C)[C@@H]1NC(=O)[C@H](Cc2ccc(OCC(=O)N3CCN(CC(=O)O)CC3)cc2)NC(=O)[C@H](Cc2ccc(O)cc2)NC(=O)[C@H](CC(N)=O)NC(=O)[C@H](Cc2cn(CC(=O)O)c3ccccc23)NC(=O)[C@H](C(C)C)NC(=O)[C@H](Cc2cccc(Cl)c2)N(C)C(=O)[C@H](C(C)C)NC(=O)[C@H](C)NC(=O)CSC[C@@H](C(=O)NCCOCCOCCOCCOCCC(N)=O)NC(=O)[C@H](Cc2ccc(O)cc2)N(C)C(=O)[C@H](Cc2cccc(C(=O)O)c2)NC(=O)[C@H](CCCCN2CCOCC2)NC(=O)[C@H](CCCCN2CCOCC2)NC(=O)[C@H]([C@@H](C)CC)NC1=O` [compound 32] ({CH2CO}-AV[NMePhe(3-Cl)]V[Trp(1-CH2COOH)]NYY(CH2CON(CH2CH2)2NCH2COOH)II[Nle(6-morpholino)][Nle(6-morpholino)][Phe(3-COOH)][NMeY]C[PEG4]-NH2; thioether N-15), for which the pKd in experiment [1] is 8.66; in experiment [2], 7.57.

`CC[C@H](C)[C@@H]1NC(=O)[C@H](Cc2ccc(OCC(=O)N3CCN(CC(=O)O)CC3)cc2)NC(=O)[C@H](Cc2ccc(O)cc2)NC(=O)[C@H](CC(N)=O)NC(=O)[C@H](Cc2cn(CC(=O)O)c3ccccc23)NC(=O)[C@H](C(C)C)NC(=O)[C@H](Cc2cccc(Cl)c2)N(C)C(=O)[C@H](C(C)C)NC(=O)[C@H](C)NC(=O)CSC[C@@H](C(=O)NCCOCCOCCOCCOCCC(N)=O)NC(=O)[C@H](Cc2ccc(O)cc2)N(C)C(=O)[C@H](Cc2ccncc2)NC(=O)[C@H](CCCCN2CCOCC2)NC(=O)[C@H](CCCCNC(=O)N2CCN(CC(=O)O)CC2)NC(=O)[C@H]([C@@H](C)CC)NC1=O` [compound 33] ({CH2CO}-AV[NMePhe(3-Cl)]V[Trp(1-CH2COOH)]NYY(CH2CON(CH2CH2)2NCH2COOH)IIK([CO-Piperazinyl(4-CH2COOH)])[Nle(6-morpholino)][4Pal][NMeY]C[PEG4]-NH2; thioether N-15): the pKd was 8.07 in experiment [1] and 7.66 in experiment [2].

Source of the values: EP4667483A1, “HUMAN TRANSFERRIN RECEPTOR-BINDING PEPTIDE” (JCR Pharmaceuticals Co., Ltd., priority 2023, dated 2024).
